# According to PMC11233931, “Remodeling tumor‐associated macrophage for anti‐cancer effects by rational design of irreversible inhibition of mitogen‐activated protein kinase‐activated protein kinase 2” (MedComm, 2024):
# Columns and labels:
# Test in all cases: Eurofins kinase selectivity profile against 380 other human recombinant kinases (Table S2)
# Assay type in all cases: biochemical
# [1] = target: T1, 380 human recombinant protein kinases (Homo sapiens, UniProt P27448); details: MARK3(h), read-out: Inhibition rate
# T1 construct: purchased Eurofins (Celle Lévescault)
# How it was run: (§1)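 To gauge specificity for MK2, the compound is profiled externally at various concentrations on recombinant human kinases, 380 in total.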
# [2] = target: T2, 380 human recombinant protein kinases (Homo sapiens, UniProt Q9UEE5); details: DRAK1(h), read-out: Inhibition rate
# T2 construct: purchased Eurofins (Celle Lévescault)
# T2 sequence (Q9UEE5 1-414): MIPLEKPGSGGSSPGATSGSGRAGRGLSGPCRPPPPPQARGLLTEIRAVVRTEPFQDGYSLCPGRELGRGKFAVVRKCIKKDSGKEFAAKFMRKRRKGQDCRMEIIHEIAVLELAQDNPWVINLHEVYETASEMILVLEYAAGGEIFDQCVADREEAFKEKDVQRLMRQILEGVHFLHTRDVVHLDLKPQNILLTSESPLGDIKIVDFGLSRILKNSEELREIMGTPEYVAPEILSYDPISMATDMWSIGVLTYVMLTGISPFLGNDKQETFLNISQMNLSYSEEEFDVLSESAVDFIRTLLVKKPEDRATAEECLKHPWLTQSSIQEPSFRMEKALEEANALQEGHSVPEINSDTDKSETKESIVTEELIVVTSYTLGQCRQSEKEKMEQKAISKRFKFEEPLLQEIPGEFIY
# How it was run: as §1
# [3] = target: T3, 380 human recombinant protein kinases (Homo sapiens, UniProt Q9Y2H1); details: NDR2(h), read-out: Inhibition rate
# T3 construct: purchased Eurofins (Celle Lévescault)
# How it was run: as §1
# [4] = target: T4, 380 human recombinant protein kinases (Homo sapiens, UniProt Q13237); details: PRKG2(h), read-out: Inhibition rate
# T4 construct: purchased Eurofins (Celle Lévescault)
# T4 sequence (Q13237 1-762): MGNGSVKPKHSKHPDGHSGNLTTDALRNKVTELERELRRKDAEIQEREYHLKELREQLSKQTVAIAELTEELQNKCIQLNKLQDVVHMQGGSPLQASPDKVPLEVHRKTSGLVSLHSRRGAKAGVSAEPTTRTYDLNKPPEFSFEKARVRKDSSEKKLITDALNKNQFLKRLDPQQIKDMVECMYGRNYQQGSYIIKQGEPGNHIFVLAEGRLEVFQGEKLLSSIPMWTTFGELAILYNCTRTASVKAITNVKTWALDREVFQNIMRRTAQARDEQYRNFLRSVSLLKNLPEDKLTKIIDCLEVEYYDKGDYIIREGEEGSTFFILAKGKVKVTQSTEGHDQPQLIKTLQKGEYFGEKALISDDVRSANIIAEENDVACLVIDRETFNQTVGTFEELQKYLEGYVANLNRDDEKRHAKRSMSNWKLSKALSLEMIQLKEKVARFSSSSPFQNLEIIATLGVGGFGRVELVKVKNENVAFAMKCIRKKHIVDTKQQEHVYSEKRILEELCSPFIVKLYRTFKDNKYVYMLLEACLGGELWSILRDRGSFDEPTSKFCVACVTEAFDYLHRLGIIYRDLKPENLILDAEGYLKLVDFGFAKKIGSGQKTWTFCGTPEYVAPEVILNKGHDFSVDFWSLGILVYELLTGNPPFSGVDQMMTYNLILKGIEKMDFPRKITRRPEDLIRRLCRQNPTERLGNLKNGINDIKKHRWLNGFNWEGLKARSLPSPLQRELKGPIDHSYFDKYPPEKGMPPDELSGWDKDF
# How it was run: as §1
# [5] = target: T5, 380 human recombinant protein kinases (Homo sapiens, UniProt O00311); details: Cdc7/cyclinB1(h), read-out: Inhibition rate
# T5 construct: purchased Eurofins (Celle Lévescault)
# How it was run: as §1
# [6] = target: T6, 380 human recombinant protein kinases (Homo sapiens, UniProt P37173); details: TGFBR2(h), read-out: Inhibition rate (%)
# T6 construct: purchased Eurofins (Celle Lévescault)
# How it was run: as §1
# [7] = target: T7, 380 human recombinant protein kinases (Homo sapiens, UniProt P00533); details: EGFR(h), read-out: Inhibition rate
# T7 construct: purchased Eurofins (Celle Lévescault)
# How it was run: as §1
# [8] = target: T8, 380 human recombinant protein kinases (Homo sapiens, UniProt Q86Z02); details: HIPK1(h), read-out: Inhibition rate
# T8 construct: purchased Eurofins (Celle Lévescault)
# How it was run: as §1
# [9] = target: T9, 380 human recombinant protein kinases (Homo sapiens, UniProt Q8WTQ7); details: GRK7(h), read-out: Inhibition rate
# T9 construct: purchased Eurofins (Celle Lévescault)
# T9 sequence (Q8WTQ7 1-553): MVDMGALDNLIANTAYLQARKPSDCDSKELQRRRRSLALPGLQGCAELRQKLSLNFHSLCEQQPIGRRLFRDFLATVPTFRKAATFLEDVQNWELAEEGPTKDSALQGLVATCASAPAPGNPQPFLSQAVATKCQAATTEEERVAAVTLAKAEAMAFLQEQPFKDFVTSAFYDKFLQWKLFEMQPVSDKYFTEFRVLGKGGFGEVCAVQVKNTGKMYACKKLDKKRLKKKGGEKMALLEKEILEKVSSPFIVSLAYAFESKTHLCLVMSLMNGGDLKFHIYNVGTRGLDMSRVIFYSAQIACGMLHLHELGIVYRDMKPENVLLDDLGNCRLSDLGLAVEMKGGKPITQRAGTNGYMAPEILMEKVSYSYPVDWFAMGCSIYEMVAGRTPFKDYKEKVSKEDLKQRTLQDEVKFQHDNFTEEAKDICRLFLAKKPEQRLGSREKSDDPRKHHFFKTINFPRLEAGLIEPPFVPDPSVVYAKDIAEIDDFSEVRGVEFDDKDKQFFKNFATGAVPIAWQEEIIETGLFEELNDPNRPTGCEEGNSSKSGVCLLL
# How it was run: as §1
# T8 sequence (Q86Z02 whole entry): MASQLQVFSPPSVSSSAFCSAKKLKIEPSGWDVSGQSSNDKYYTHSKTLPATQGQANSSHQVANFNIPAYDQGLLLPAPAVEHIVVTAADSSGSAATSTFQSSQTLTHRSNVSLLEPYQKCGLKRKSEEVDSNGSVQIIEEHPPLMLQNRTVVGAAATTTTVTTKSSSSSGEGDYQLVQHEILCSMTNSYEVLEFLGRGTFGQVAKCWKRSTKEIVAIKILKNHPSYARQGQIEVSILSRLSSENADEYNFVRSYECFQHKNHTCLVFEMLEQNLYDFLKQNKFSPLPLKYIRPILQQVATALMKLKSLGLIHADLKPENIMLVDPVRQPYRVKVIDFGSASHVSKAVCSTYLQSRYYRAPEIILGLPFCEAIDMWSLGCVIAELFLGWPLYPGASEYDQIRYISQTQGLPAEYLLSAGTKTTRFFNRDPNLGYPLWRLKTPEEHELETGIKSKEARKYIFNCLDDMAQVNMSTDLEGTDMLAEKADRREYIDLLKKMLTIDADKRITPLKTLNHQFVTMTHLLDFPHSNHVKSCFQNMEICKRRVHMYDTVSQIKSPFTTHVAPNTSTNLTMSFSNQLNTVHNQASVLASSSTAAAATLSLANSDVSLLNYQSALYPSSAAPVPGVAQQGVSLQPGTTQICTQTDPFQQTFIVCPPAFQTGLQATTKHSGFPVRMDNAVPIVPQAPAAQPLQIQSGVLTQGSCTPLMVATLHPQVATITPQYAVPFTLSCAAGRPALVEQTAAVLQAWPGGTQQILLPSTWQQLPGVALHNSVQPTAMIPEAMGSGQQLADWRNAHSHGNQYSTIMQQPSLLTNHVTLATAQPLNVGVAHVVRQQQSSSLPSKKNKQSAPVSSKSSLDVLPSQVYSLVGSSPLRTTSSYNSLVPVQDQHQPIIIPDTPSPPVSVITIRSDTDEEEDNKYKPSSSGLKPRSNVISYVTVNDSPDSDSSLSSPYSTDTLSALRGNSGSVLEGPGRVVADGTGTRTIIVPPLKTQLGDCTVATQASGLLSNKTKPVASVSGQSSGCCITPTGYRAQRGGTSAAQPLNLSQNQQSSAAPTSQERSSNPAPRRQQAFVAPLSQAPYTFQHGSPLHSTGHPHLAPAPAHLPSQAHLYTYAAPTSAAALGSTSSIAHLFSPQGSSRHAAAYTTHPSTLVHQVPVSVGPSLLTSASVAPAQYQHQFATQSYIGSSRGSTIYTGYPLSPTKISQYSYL
# T3 sequence (Q9Y2H1 whole entry): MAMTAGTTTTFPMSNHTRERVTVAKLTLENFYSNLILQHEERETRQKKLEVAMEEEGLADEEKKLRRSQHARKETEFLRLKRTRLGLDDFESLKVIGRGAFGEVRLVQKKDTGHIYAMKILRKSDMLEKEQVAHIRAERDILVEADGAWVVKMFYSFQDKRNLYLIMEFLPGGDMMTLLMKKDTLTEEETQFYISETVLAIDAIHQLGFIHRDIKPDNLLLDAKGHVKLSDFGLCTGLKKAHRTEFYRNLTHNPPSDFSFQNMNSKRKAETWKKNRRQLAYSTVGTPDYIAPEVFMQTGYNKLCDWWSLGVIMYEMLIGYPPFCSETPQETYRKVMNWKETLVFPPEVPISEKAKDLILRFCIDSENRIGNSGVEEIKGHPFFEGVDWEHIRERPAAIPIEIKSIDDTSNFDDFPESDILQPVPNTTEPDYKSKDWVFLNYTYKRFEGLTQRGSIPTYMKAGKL
# T6 sequence (P37173 23-567): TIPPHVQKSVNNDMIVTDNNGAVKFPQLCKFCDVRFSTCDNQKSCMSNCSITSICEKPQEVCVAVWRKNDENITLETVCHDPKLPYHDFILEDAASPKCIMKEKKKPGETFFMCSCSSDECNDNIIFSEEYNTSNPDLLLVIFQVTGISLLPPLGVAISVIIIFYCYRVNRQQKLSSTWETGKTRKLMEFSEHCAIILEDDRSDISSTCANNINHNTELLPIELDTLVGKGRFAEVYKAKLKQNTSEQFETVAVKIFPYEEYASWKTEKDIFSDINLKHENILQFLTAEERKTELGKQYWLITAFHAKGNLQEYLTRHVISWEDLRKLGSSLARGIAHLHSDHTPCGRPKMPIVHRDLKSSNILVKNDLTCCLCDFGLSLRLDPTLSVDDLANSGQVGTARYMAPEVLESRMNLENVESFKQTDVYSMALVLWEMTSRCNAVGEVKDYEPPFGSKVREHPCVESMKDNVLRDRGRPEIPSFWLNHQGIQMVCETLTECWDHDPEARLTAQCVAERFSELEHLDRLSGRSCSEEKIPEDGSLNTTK
# T5 sequence (O00311 whole entry): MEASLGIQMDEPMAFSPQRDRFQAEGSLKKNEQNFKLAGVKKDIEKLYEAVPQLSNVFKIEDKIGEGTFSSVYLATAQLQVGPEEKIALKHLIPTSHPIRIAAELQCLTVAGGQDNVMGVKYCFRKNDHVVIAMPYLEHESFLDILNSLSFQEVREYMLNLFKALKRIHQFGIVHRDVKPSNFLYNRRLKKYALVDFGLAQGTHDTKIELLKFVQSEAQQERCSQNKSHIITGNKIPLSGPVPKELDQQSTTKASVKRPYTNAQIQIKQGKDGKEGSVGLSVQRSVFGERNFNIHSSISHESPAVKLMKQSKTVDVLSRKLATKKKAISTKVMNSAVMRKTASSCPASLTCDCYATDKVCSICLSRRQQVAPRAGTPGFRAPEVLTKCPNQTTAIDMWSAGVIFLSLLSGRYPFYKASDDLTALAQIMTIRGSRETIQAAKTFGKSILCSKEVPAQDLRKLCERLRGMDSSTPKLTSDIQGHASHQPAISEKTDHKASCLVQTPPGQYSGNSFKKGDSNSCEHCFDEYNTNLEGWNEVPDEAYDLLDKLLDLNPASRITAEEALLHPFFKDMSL
# T7 sequence (P00533 25-1210): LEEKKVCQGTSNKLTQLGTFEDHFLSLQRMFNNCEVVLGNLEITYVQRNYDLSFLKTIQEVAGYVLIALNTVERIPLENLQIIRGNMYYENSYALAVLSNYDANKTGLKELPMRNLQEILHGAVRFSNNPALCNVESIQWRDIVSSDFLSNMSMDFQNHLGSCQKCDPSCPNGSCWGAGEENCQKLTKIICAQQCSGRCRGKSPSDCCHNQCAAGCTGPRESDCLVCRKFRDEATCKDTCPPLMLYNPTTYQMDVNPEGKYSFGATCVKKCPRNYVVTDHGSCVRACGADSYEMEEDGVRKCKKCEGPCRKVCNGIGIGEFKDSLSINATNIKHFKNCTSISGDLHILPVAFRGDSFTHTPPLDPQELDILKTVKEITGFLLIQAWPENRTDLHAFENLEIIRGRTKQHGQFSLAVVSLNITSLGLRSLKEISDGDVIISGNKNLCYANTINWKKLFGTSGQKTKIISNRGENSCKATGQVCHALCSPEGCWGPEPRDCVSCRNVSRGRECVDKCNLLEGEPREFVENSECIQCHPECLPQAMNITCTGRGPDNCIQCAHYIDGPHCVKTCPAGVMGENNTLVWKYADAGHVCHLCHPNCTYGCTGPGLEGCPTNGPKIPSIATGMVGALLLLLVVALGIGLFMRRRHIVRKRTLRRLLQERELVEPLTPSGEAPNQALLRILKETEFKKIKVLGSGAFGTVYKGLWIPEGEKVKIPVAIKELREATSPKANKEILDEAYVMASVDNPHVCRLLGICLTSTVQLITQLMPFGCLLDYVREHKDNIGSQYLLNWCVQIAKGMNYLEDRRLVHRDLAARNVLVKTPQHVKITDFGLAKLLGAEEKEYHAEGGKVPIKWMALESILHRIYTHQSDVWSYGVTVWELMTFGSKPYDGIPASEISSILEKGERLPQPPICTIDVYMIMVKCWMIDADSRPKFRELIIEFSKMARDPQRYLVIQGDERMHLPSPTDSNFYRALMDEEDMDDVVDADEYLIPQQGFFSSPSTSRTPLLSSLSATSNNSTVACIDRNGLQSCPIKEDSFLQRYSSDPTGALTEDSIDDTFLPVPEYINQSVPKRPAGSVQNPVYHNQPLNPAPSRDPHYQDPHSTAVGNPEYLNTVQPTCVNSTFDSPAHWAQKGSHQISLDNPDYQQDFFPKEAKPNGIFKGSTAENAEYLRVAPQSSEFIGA
# T1 sequence (P27448 whole entry): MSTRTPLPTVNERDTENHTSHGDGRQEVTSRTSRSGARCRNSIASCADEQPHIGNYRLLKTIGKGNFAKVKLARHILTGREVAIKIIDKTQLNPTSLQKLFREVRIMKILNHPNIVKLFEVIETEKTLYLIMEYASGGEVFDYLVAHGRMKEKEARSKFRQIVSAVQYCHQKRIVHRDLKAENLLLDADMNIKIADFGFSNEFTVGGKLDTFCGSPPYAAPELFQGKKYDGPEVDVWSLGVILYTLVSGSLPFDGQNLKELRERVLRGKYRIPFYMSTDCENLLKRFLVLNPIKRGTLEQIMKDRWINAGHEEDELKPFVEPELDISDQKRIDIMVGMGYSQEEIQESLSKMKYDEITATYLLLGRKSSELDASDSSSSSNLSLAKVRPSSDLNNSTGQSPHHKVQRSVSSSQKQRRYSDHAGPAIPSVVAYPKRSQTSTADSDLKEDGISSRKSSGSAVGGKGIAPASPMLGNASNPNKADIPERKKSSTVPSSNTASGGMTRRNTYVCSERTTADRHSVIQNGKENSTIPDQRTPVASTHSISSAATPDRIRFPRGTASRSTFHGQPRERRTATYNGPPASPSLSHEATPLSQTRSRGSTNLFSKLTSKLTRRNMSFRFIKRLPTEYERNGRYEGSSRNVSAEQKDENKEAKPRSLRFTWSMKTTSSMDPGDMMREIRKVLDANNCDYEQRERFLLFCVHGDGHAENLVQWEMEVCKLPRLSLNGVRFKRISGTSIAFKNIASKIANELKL
smiles,measurement,setting,value
C=CC(=O)Nc1cc(-c2cc(-c3cc4c([nH]3)CCNC4=O)ccn2)ccc1OC(F)(F)F [compound 11],inhibition at 0.01 µM,[1]; 10 nM,2%
same,inhibition at 0.1 µM,[1]; 100 nM,-4%
same,inhibition at 1 µM,[1]; 1000 nM,5%
same,inhibition at 0.01 µM,[2]; 10 nM,13%
same,inhibition at 0.1 µM,[2]; 100 nM,41%
same,inhibition at 1 µM,[2]; 1000 nM,82%
same,inhibition at 0.01 µM,[3]; 10 nM,-5%
same,inhibition at 0.1 µM,[3]; 100 nM,-10%
same,inhibition at 1 µM,[3]; 1000 nM,-2%
same,inhibition at 0.01 µM,[4]; 10 nM,7%
same,inhibition at 0.1 µM,[4]; 100 nM,19%
same,inhibition at 1 µM,[4]; 1000 nM,35%
same,inhibition at 0.01 µM,[5]; 10 nM,8%
same,inhibition at 0.1 µM,[5]; 100 nM,16%
same,inhibition at 1 µM,[5]; 1000 nM,22%
same,inhibition at 0.01 µM,[6]; 10 nM,-11%
same,inhibition at 0.1 µM,[6]; 100 nM,2%
same,inhibition at 1 µM,[6]; 1000 nM,6%
same,inhibition at 0.01 µM,[7]; 10 nM,3%
same,inhibition at 0.1 µM,[7]; 100 nM,-20%
same,inhibition at 1 µM,[7]; 1000 nM,-6%
same,inhibition at 0.01 µM,[8]; 10 nM,-21%
same,inhibition at 0.1 µM,[8]; 100 nM,-9%
same,inhibition at 1 µM,[8]; 1000 nM,-3%
same,inhibition at 0.01 µM,[9]; 10 nM,-4%
same,inhibition at 0.1 µM,[9]; 100 nM,-6%
same,inhibition at 1 µM,[9]; 1000 nM,2%
